{"source": "patent US9156801B2", "about": "“2-substituted oleanolic acid derivative, method preparing for same, and application thereof” (HANGZHOU BENSHENG PHARMACEUTICAL CO., LTD., priority 2011, dated 2015)", "key": {"H9 cell line": {"test_system": "H9 cell line", "test": "leukemia cell growth inhibition, MTT", "format": "cell-based", "conditions": "Homo sapiens", "excerpt": "(§1) Leukemia cell lines: leukemia cell lines: K562/adr (drug-resistant, chronic myeloid leukemia, CML), NB4 (acute promyelocytic leukemia, AML), Kasumi-1 (acute myeloid leukemia M2 type, AML-M2), Jurkat (acute lymphoblastic leukemia, ALL), all of which are donated by Cancer Research Institute of Zhejiang University, China; and H9 (acute lymphoblastic leukemia, ALL), which is purchased from China Center for Type Culture Collection (CCTCC).\n(§2) Obtaining 6000 well-growing leukemia cells and inoculating them into wells of a 96-well cell culture plate. The culture medium is the 1640 cell culture medium containing 10% fetal bovine serum. After adding the 2-substituted oleanolic acid derivatives of different concentrations and mixing uniformly, placing the plate in a carbon dioxide cell incubator (5% CO2) at 37° C. and incubated for 72 hours. Then the relative number of viable cells is determined by MTT method. In this experiment, cell proliferation inhibition rate in control group (not treated with any compound) is set as 0%."}, "Jurkat cell line": {"test_system": "Jurkat cell line", "test": "leukemia cell growth inhibition, MTT", "format": "cell-based", "conditions": "Homo sapiens, 72 h", "excerpt": "as §1, §2"}, "K562/adr cell line": {"test_system": "K562/adr cell line", "test": "leukemia cell growth inhibition, MTT", "format": "cell-based", "conditions": "Homo sapiens, 72 h", "excerpt": "as §1, §2"}, "Kasumi-1 cell line": {"test_system": "Kasumi-1 cell line", "test": "leukemia cell growth inhibition, MTT", "format": "cell-based", "conditions": "Homo sapiens", "excerpt": "as §1, §2"}, "NB4 cell line": {"test_system": "NB4 cell line", "test": "leukemia cell growth inhibition, MTT", "format": "cell-based", "conditions": "Homo sapiens, NB-4", "excerpt": "as §1, §2"}, "RPMI8226 cell line": {"test_system": "RPMI8226 cell line", "test": "multiple myeloma cell growth inhibition, MTT", "format": "cell-based", "conditions": "Homo sapiens, RPMI-8226", "procedure": "Multiple myeloma cell lines: RPMI8226 (multiple myeloma), purchased from Fuxiang Bio-tech Co. Ltd., Shanghai, China.\nObtaining 6000 well-growing cells as above and inoculating them into wells of a 96-well cell culture plate. The culture medium is the 1640 cell culture medium containing 10% fetal bovine serum. After adding the 2-substituted oleanolic acid derivatives of different concentrations and mixing uniformly, placing the plate in a carbon dioxide cell incubator (5% CO2) at 37° C. and incubated for 72 hours. Then the relative number of viable cells is determined by MTT method. In this experiment, cell proliferation inhibition rate in control group (not treated with any compound) is set as 0%."}, "Hep G2 cell line": {"test_system": "Hep G2 cell line", "test": "solid tumor cell growth inhibition, MTT", "format": "cell-based, human", "conditions": "Homo sapiens", "procedure": "(§3) Hep-2 (laryngeal carcinoma), A549 (human lung cancer), CaES-17 (esophageal cancer cell), PC-3 (prostate cancer), CNE (nasopharyngeal carcinoma cell), and SK-OV-3 (ovarian cancer cell), all of which are purchased from China Center For Type Culture Collection; RKO (human colon adenocarcinoma cell), MGC 803 (human gastric cancer cell), MG63 (osteosarcoma) and U87 MG (malignant glioma cell), all of which are purchased from Fuxiang Bio-tech Co. Ltd., Shanghai, China; PANC-1 (pancreatic cancer), Hep G2 (human liver cancer cell), Becap37 (human breast cancer cell), and Hela (human cervical cancer cell), all of which are donated by Cancer Research Institute of Zhejiang University, China.\n(§4) Obtaining 4000 well-growing human solid tumor cells and inoculating them into wells of a 96-well cell culture plate. The culture medium is DMEM High Glucose cell culture medium containing 10% fetal bovine serum. The plate is placed in a carbon dioxide cell incubator (5% CO2) at 37° C. for 24 hours. After adding the 2-substituted oleanolic acid derivatives of different concentrations and mixing uniformly, the plate is placed in a carbon dioxide cell incubator (5% CO2) at 37° C. and incubated for 72 hours. Then the relative number of the living cells is determined by MTT method. In this experiment, the cell proliferation inhibition rate in control group (not treated with any compound) is set as 0%."}, "A549 cell line": {"test_system": "A549 cell line", "test": "solid tumor cell growth inhibition, MTT", "format": "cell-based", "conditions": "Homo sapiens", "procedure": "as §3, §4"}, "Becap37 cell line": {"test_system": "Becap37 cell line", "test": "solid tumor cell growth inhibition, MTT", "format": "cell-based", "conditions": "Homo sapiens", "procedure": "as §3, §4"}, "CNE cell line": {"test_system": "CNE cell line", "test": "solid tumor cell growth inhibition, MTT", "format": "cell-based", "conditions": "Homo sapiens, 72 h", "procedure": "as §3, §4"}, "CaES-17 cell line": {"test_system": "CaES-17 cell line", "test": "solid tumor cell growth inhibition, MTT", "format": "cell-based", "conditions": "Homo sapiens, CaEs17", "procedure": "as §3, §4"}, "Hela cell line": {"test_system": "Hela cell line", "test": "solid tumor cell growth inhibition, MTT", "format": "cell-based", "conditions": "Homo sapiens, 72 h", "procedure": "as §3, §4"}, "Hep-2 cell line": {"test_system": "Hep-2 cell line", "test": "solid tumor cell growth inhibition, MTT", "format": "cell-based", "conditions": "Homo sapiens", "procedure": "as §3, §4"}, "MG-63 cell line": {"test_system": "MG-63 cell line", "test": "solid tumor cell growth inhibition, MTT", "format": "cell-based", "conditions": "Homo sapiens", "procedure": "as §3, §4"}, "MGC 803 cell line": {"test_system": "MGC 803 cell line", "test": "solid tumor cell growth inhibition, MTT", "format": "cell-based", "conditions": "Homo sapiens", "procedure": "as §3, §4"}, "PANC-1 cell line": {"test_system": "PANC-1 cell line", "test": "solid tumor cell growth inhibition, MTT", "format": "cell-based", "conditions": "Homo sapiens", "procedure": "as §3, §4"}, "PC-3 cell line": {"test_system": "PC-3 cell line", "test": "solid tumor cell growth inhibition, MTT", "format": "cell-based", "conditions": "Homo sapiens", "procedure": "as §3, §4"}, "RKO cell line": {"test_system": "RKO cell line", "test": "solid tumor cell growth inhibition, MTT", "format": "cell-based", "conditions": "Homo sapiens, 72 h", "procedure": "as §3, §4"}, "SK-OV-3 cell line": {"test_system": "SK-OV-3 cell line", "test": "solid tumor cell growth inhibition, MTT", "format": "cell-based", "conditions": "Homo sapiens", "procedure": "as §3, §4"}, "U87 MG cell line": {"test_system": "U87 MG cell line", "test": "solid tumor cell growth inhibition, MTT", "format": "cell-based", "conditions": "Homo sapiens, U-87 MG, 72 h", "procedure": "as §3, §4"}, "[1]": {"conditions": "16 μg/mL compound, read-out: IR (cell proliferation inhibition rate)"}}, "data": [{"smiles": "COC(=O)[C@]12CCC(C)(C)C[C@H]1C1=CC[C@@H]3[C@@]4(C)CC(C(=O)NCCN5CCCCC5)C(=O)C(C)(C)[C@@H]4CC[C@@]3(C)[C@]1(C)CC2", "note": "(stereo partly shown) [BS-OA-004]", "values": [{"measurement": "IC50", "setting": "H9 cell line; H9, 72 h", "result": 5.67, "unit": "µg/mL"}, {"measurement": "inhibition at 16 µg/mL", "setting": "H9 cell line; H9, 16 μg/mL compound, 72 h, read-out: IR (cell proliferation inhibition rate)", "result": 98.2, "unit": "%"}, {"measurement": "inhibition at 16 µg/mL", "setting": "Jurkat cell line; [1]", "result": 97.7, "unit": "%"}, {"measurement": "IC50", "setting": "Jurkat cell line", "result": 6.15, "unit": "µg/mL"}, {"measurement": "IC50", "setting": "K562/adr cell line; K562/Adr", "result": 2.41, "unit": "µg/mL"}, {"measurement": "inhibition at 16 µg/mL", "setting": "K562/adr cell line; K562/adr, 16 μg/mL compound, read-out: IR (cell proliferation inhibition rate)", "result": 98.3, "unit": "%"}, {"measurement": "inhibition at 16 µg/mL", "setting": "Kasumi-1 cell line; Kasumi-1, 16 μg/mL compound, 72 h, read-out: IR (cell proliferation inhibition rate)", "result": 99.6, "unit": "%"}, {"measurement": "IC50", "setting": "Kasumi-1 cell line; Kasumi-1, 72 h", "result": 6.5, "unit": "µg/mL"}, {"measurement": "inhibition at 16 µg/mL", "setting": "NB4 cell line; NB4, 16 μg/mL compound, 72 h, read-out: IR (cell proliferation inhibition rate)", "result": 100, "unit": "%"}, {"measurement": "IC50", "setting": "NB4 cell line; NB4, 72 h", "result": 2.84, "unit": "µg/mL"}, {"measurement": "inhibition at 16 µg/mL", "setting": "RPMI8226 cell line; RPMI8226, 16 μg/mL compound, 72 h, read-out: IR (cell proliferation inhibition rate)", "result": 98.3, "unit": "%"}, {"measurement": "IC50", "setting": "RPMI8226 cell line; RPMI8226, 72 h", "result": 2.08, "unit": "µg/mL"}, {"measurement": "inhibition at 16 µg/mL", "setting": "Hep G2 cell line; HepG2, 72 h, Hep G2, 16 μg/mL compound, 72 h, read-out: IR (cell proliferation inhibition rate)", "result": 100, "unit": "%"}, {"measurement": "IC50", "setting": "Hep G2 cell line; HepG2, Hep G2, 72 h", "result": 4.89, "unit": "µg/mL"}, {"measurement": "IC50", "setting": "A549 cell line; A549, 72 h", "result": 7.7, "unit": "µg/mL"}, {"measurement": "inhibition at 16 µg/mL", "setting": "A549 cell line; A549, 16 μg/mL compound, 72 h, read-out: IR (cell proliferation inhibition rate)", "result": 92, "unit": "%"}, {"measurement": "inhibition at 16 µg/mL", "setting": "Becap37 cell line; Becap37, 16 μg/mL compound, 72 h, read-out: IR (cell proliferation inhibition rate)", "result": 43.9, "unit": "%"}, {"measurement": "IC50", "setting": "Becap37 cell line; Becap37, 72 h", "result": "> 16", "unit": "µg/mL"}, {"measurement": "inhibition at 16 µg/mL", "setting": "CNE cell line; [1]", "result": 97.3, "unit": "%"}, {"measurement": "IC50", "setting": "CNE cell line", "result": 8.46, "unit": "µg/mL"}, {"measurement": "inhibition at 16 µg/mL", "setting": "CaES-17 cell line; CaES-17, 16 μg/mL compound, 72 h, read-out: IR (cell proliferation inhibition rate)", "result": 81.2, "unit": "%"}, {"measurement": "IC50", "setting": "CaES-17 cell line; CaES-17, 72 h", "result": 8.88, "unit": "µg/mL"}, {"measurement": "IC50", "setting": "Hela cell line; HeLa", "result": 9.28, "unit": "µg/mL"}, {"measurement": "inhibition at 16 µg/mL", "setting": "Hela cell line; Hela, 16 μg/mL compound, read-out: IR (cell proliferation inhibition rate)", "result": 99.4, "unit": "%"}, {"measurement": "IC50", "setting": "Hep-2 cell line; HEp-2, 72 h", "result": 10.1, "unit": "µg/mL"}, {"measurement": "inhibition at 16 µg/mL", "setting": "Hep-2 cell line; Hep-2, 16 μg/mL compound, 72 h, read-out: IR (cell proliferation inhibition rate)", "result": 85.5, "unit": "%"}, {"measurement": "IC50", "setting": "MG-63 cell line; MG-63, 72 h", "result": 8.37, "unit": "µg/mL"}, {"measurement": "inhibition at 16 µg/mL", "setting": "MG-63 cell line; MG-63, 16 μg/mL compound, 72 h, read-out: IR (cell proliferation inhibition rate)", "result": 99, "unit": "%"}, {"measurement": "inhibition at 16 µg/mL", "setting": "MGC 803 cell line; MGC 803, 16 μg/mL compound, 72 h, read-out: IR (cell proliferation inhibition rate)", "result": 98.1, "unit": "%"}, {"measurement": "IC50", "setting": "MGC 803 cell line; MGC 803, 72 h", "result": 7.32, "unit": "µg/mL"}, {"measurement": "IC50", "setting": "PANC-1 cell line; PANC-1, 72 h", "result": 8.77, "unit": "µg/mL"}, {"measurement": "inhibition at 16 µg/mL", "setting": "PANC-1 cell line; PANC-1, 16 μg/mL compound, 72 h, read-out: IR (cell proliferation inhibition rate)", "result": 94.1, "unit": "%"}, {"measurement": "IC50", "setting": "PC-3 cell line; PC-3, 72 h", "result": 9.91, "unit": "µg/mL"}, {"measurement": "inhibition at 16 µg/mL", "setting": "PC-3 cell line; PC-3, 16 μg/mL compound, 72 h, read-out: IR (cell proliferation inhibition rate)", "result": 89.8, "unit": "%"}, {"measurement": "inhibition at 16 µg/mL", "setting": "RKO cell line; [1]", "result": 98.9, "unit": "%"}, {"measurement": "IC50", "setting": "RKO cell line", "result": 7.4, "unit": "µg/mL"}, {"measurement": "IC50", "setting": "SK-OV-3 cell line; SK-OV-3, 72 h", "result": 9.14, "unit": "µg/mL"}, {"measurement": "inhibition at 16 µg/mL", "setting": "SK-OV-3 cell line; SK-OV-3, 16 μg/mL compound, 72 h, read-out: IR (cell proliferation inhibition rate)", "result": 94.9, "unit": "%"}, {"measurement": "inhibition at 16 µg/mL", "setting": "U87 MG cell line; [1]", "result": 98, "unit": "%"}, {"measurement": "IC50", "setting": "U87 MG cell line", "result": 10, "unit": "µg/mL"}]}]}
